What was measured:
[1] = test system: obese type 2 diabetes mellitus patients poorly controlled with a basal insulin alone or with one to three oral anti-diabetic drugs; test: 12-week insulin glargine titration (run-in); type: in vivo, human; details: 12 weeks titration, optionally with metformin
[2] = test system: Patients with Type 2 Diabetes Insufficiently Controlled with Insulin Glargine with or without Metformin; test: Body weight, 26-week study; type: in vivo, human; details: once daily or three times daily; in words
Source text: FIG. 6—Graphical study design. ^1 Insulin glargine should be injected subcutaneously once daily at dinner or breakfast time (according to patient's/investigators' preference). […] Meal used for insulin glulisine dosing should remain the same throughout the 26-week treatment period. ^4 Injection of insulin glulisine prior to breakfast, lunch and dinner.
Co-primary endpoints at 26 weeks were (1) non-inferiority (95% CI upper bound <0.4%) in HbA1c reduction with LIXI vs GLU-1 and (2) for LIXI vs GLU-3, either non-inferiority in HbA1c reduction (2a) OR superiority (one-sided α≤0.025) in body weight change (2b). FPG, PPG, IG dose, composite outcomes, AEs, and hypoglycemia were assessed.

Gly(A21)-Arg(B31)-Arg(B32) human insulin [insulin glargine]
fasting glucose plasma concentration after titration of insulin glargine ([1]; initial reduction from 9.16 mmol/L): 6.91 mmol/L | HbA1c after titration of insulin glargine ([1]; initial reduction from 8.51%): 7.87%

insulin glulisine: prandial insulin, comparative treatment once daily or three times daily
Effect of the comparative treatment on body weight [2]: significant weight gain
